# Assay results from the OligoGym collection.
# Several values for one entry are separate records, joined by “and”; a condition that tells them apart may be missing. Identical values can stand only once. HELM strings list units from the 5' end as sugar, base in round brackets, then linkage (d deoxyribose, r ribose, m 2'-O-methyl, p phosphodiester). Methylation of C is not given here. [moe] = 2'-O-(2-methoxyethyl) (MOE); [cEt] = constrained ethyl (cEt); [sp] = phosphorothioate linkage
# Molecular target: HBV
# Conditions: ASO
Substance,"target mRNA inhibition (HepG2, 0.07 µM)",other results
RNA1{[moe](C)[sp].[moe](A)[sp].d(A)[sp].d(T)[sp].d(T)[sp].d(T)[sp].d(A)[sp].d(T)[sp].d(G)[sp].d(C)[sp].d(C)[sp].[moe](T)[sp].[moe](A)[sp].[moe](C)[sp].[moe](A)[sp].[moe](G)[sp].[moe](C)}$$$$V2.0,53% and 46%,–
RNA1{[moe](A)[sp].[cEt](A)[sp].[cEt](G)[sp].d(G)[sp].d(C)[sp].d(A)[sp].d(C)[sp].d(A)[sp].d(G)[sp].d(C)[sp].d(T)[sp].d(T)[sp].d(G)[sp].[cEt](G)[sp].[cEt](A)[sp].[moe](G)}$$$$V2.0,32% and 15%,–
RNA1{[moe](G)[sp].[cEt](A)[sp].d(A)[sp].d(C)[sp].d(A)[sp].d(A)[sp].d(A)[sp].d(T)[sp].d(G)[sp].d(G)[sp].d(C)[sp].d(A)[sp].[cEt](C)[sp].[moe](T)[sp].[cEt](A)[sp].[moe](G)}$$$$V2.0,75% and 79%,–
RNA1{[moe](G)[sp].[cEt](A)[sp].[cEt](A)[sp].d(G)[sp].d(T)[sp].d(C)[sp].d(C)[sp].d(A)[sp].d(C)[sp].d(C)[sp].d(A)[sp].d(C)[sp].d(G)[sp].[cEt](A)[sp].[cEt](G)[sp].[moe](T)}$$$$V2.0,59% and 53%,–
RNA1{[moe](G)[sp].[moe](C)[sp].[moe](A)[sp].[moe](G)[sp].d(A)[sp].d(G)[sp].d(G)[sp].d(T)[sp].d(G)[sp].d(A)[sp].d(A)[sp].d(G)[sp].d(C)[sp].[moe](G)[sp].[moe](A)[sp].[moe](A)}$$$$V2.0,60%,–
RNA1{[cEt](A)[sp].d(G)[sp].[cEt](G)[sp].d(T)[sp].[cEt](G)[sp].d(A)[sp].d(A)[sp].d(G)[sp].d(C)[sp].d(G)[sp].d(A)[sp].d(A)[sp].d(G)[sp].d(T)[sp].[moe](G)[sp].[moe](C)}$$$$V2.0,–,"target mRNA inhibition (HepG2, 0.009375 µM): 14%; target mRNA inhibition (HepG2, 0.01875 µM): 21%; target mRNA inhibition (HepG2, 0.0375 µM): 42%; target mRNA inhibition (HepG2, 0.075 µM): 61%; target mRNA inhibition (HepG2, 0.15 µM): 80%; target mRNA inhibition (HepG2, 0.3 µM): 92%"
RNA1{[moe](T)[sp].[cEt](G)[sp].[cEt](A)[sp].d(A)[sp].d(G)[sp].d(C)[sp].d(G)[sp].d(A)[sp].d(A)[sp].d(G)[sp].d(T)[sp].d(G)[sp].d(C)[sp].[cEt](A)[sp].[cEt](C)[sp].[moe](A)}$$$$V2.0,69% and 77%,–
RNA1{[moe](A)[sp].[moe](A)[sp].[moe](C)[sp].[moe](T)[sp].d(G)[sp].d(G)[sp].d(A)[sp].d(G)[sp].d(C)[sp].d(C)[sp].d(A)[sp].d(C)[sp].d(C)[sp].[moe](A)[sp].[moe](G)[sp].[moe](C)[sp].[moe](A)}$$$$V2.0,64% and 58%,–
RNA1{[moe](A)[sp].[moe](G)[sp].[moe](A)[sp].d(A)[sp].d(G)[sp].d(T)[sp].d(C)[sp].d(C)[sp].d(A)[sp].d(C)[sp].d(C)[sp].d(A)[sp].d(C)[sp].[cEt](G)[sp].[cEt](A)[sp].[cEt](G)}$$$$V2.0,42% and 55%,–
RNA1{[moe](T)[sp].[moe](T)[sp].d(C)[sp].d(C)[sp].d(G)[sp].d(C)[sp].d(A)[sp].d(G)[sp].d(T)[sp].d(A)[sp].d(T)[sp].[moe](G)[sp].[moe](G)[sp].[moe](A)[sp].[moe](T)[sp].[moe](C)[sp].[moe](G)}$$$$V2.0,67% and 72%,–
RNA1{[moe](G)[sp].[moe](A)[sp].d(T)[sp].d(G)[sp].d(A)[sp].d(G)[sp].d(G)[sp].d(C)[sp].d(A)[sp].d(T)[sp].d(A)[sp].[moe](G)[sp].[moe](C)[sp].[moe](A)[sp].[moe](G)[sp].[moe](C)}$$$$V2.0,57% and 33%,–
RNA1{[moe](C)[sp].[moe](A)[sp].[moe](C)[sp].[moe](T)[sp].d(A)[sp].d(G)[sp].d(T)[sp].d(A)[sp].d(A)[sp].d(A)[sp].d(C)[sp].d(T)[sp].d(G)[sp].[moe](A)[sp].[moe](G)[sp].[moe](C)[sp].[moe](C)}$$$$V2.0,61% and 54%,–
RNA1{[moe](G)[sp].[moe](A)[sp].[moe](T)[sp].[moe](G)[sp].[moe](A)[sp].[moe](G)[sp].d(G)[sp].d(C)[sp].d(A)[sp].d(T)[sp].d(A)[sp].d(G)[sp].d(C)[sp].d(A)[sp].d(G)[sp].[moe](C)[sp].[moe](A)}$$$$V2.0,63% and 44%,–
RNA1{[moe](G)[sp].[cEt](C)[sp].d(A)[sp].d(G)[sp].d(A)[sp].d(G)[sp].d(G)[sp].d(T)[sp].d(G)[sp].d(A)[sp].d(A)[sp].d(G)[sp].[cEt](C)[sp].[moe](G)[sp].[cEt](A)[sp].[moe](A)}$$$$V2.0,80% and 85%,"target mRNA inhibition (HepG2, 0.0092593 µM): 21%; target mRNA inhibition (HepG2, 0.0277778 µM): 48%; target mRNA inhibition (HepG2, 0.0833333 µM): 74%; target mRNA inhibition (HepG2, 0.25 µM): 88%"
RNA1{[moe](G)[sp].[moe](A)[sp].[moe](A)[sp].[moe](G)[sp].d(C)[sp].d(G)[sp].d(A)[sp].d(A)[sp].d(G)[sp].d(T)[sp].d(G)[sp].d(C)[sp].d(A)[sp].[moe](C)[sp].[moe](A)[sp].[moe](C)[sp].[moe](G)}$$$$V2.0,65% and 57%,–
RNA1{[moe](G)[sp].[moe](C)[sp].[moe](A)[sp].[moe](T)[sp].d(A)[sp].d(G)[sp].d(C)[sp].d(A)[sp].d(G)[sp].d(C)[sp].d(A)[sp].d(G)[sp].d(G)[sp].[moe](A)[sp].[moe](T)[sp].[moe](G)}$$$$V2.0,44% and 56%,–

Substance,"target mRNA inhibition (HepG2, 0.07 µM)",other results
RNA1{[moe](A)[sp].[cEt](C)[sp].[cEt](C)[sp].d(A)[sp].d(C)[sp].d(A)[sp].d(T)[sp].d(C)[sp].d(A)[sp].d(T)[sp].d(C)[sp].d(C)[sp].d(A)[sp].[cEt](T)[sp].[cEt](A)[sp].[moe](T)}$$$$V2.0,35% and 54%,–
RNA1{[moe](G)[sp].[cEt](A)[sp].[cEt](A)[sp].d(G)[sp].d(A)[sp].d(T)[sp].d(G)[sp].d(A)[sp].d(G)[sp].d(G)[sp].d(C)[sp].d(A)[sp].d(T)[sp].[cEt](A)[sp].[cEt](G)[sp].[moe](C)}$$$$V2.0,69% and 66%,–
RNA1{[moe](A)[sp].[moe](T)[sp].[moe](T)[sp].[moe](T)[sp].[moe](A)[sp].[moe](T)[sp].d(G)[sp].d(C)[sp].d(C)[sp].d(T)[sp].d(A)[sp].d(C)[sp].d(A)[sp].d(G)[sp].d(C)[sp].[moe](C)[sp].[moe](T)}$$$$V2.0,74% and 57%,"target mRNA inhibition (HepG2, 0.0092593 µM): 0%; target mRNA inhibition (HepG2, 0.0277778 µM): 12%; target mRNA inhibition (HepG2, 0.0833333 µM): 24%; target mRNA inhibition (HepG2, 0.25 µM): 46%"
RNA1{[moe](A)[sp].[cEt](G)[sp].d(A)[sp].d(A)[sp].d(G)[sp].d(T)[sp].d(C)[sp].d(C)[sp].d(A)[sp].d(C)[sp].d(C)[sp].d(A)[sp].[cEt](C)[sp].[moe](G)[sp].[cEt](A)[sp].[moe](G)}$$$$V2.0,55% and 37%,–
RNA1{[moe](C)[sp].[moe](A)[sp].[moe](A)[sp].[moe](T)[sp].d(T)[sp].d(T)[sp].d(A)[sp].d(T)[sp].d(G)[sp].d(C)[sp].d(C)[sp].d(T)[sp].d(A)[sp].[moe](C)[sp].[moe](A)[sp].[moe](G)}$$$$V2.0,19% and 13%,–
RNA1{[moe](G)[sp].[moe](T)[sp].[moe](T)[sp].d(C)[sp].d(C)[sp].d(G)[sp].d(C)[sp].d(A)[sp].d(G)[sp].d(T)[sp].d(A)[sp].d(T)[sp].d(G)[sp].[cEt](G)[sp].[cEt](A)[sp].[cEt](T)}$$$$V2.0,52% and 67%,–
RNA1{[moe](A)[sp].[moe](C)[sp].[moe](G)[sp].[moe](G)[sp].[moe](G)[sp].d(C)[sp].d(A)[sp].d(A)[sp].d(C)[sp].d(A)[sp].d(T)[sp].d(A)[sp].d(C)[sp].d(C)[sp].[moe](T)[sp].[moe](T)[sp].[moe](G)}$$$$V2.0,48% and 45%,–
RNA1{[moe](G)[sp].[moe](A)[sp].[moe](T)[sp].d(G)[sp].d(A)[sp].d(G)[sp].d(G)[sp].d(C)[sp].d(A)[sp].d(T)[sp].d(A)[sp].d(G)[sp].[moe](C)[sp].[moe](A)[sp].[moe](G)[sp].[moe](C)}$$$$V2.0,39% and 38%,–
RNA1{[moe](C)[sp].[moe](A)[sp].[moe](A)[sp].d(T)[sp].d(T)[sp].d(T)[sp].d(A)[sp].d(T)[sp].d(G)[sp].d(C)[sp].d(C)[sp].d(T)[sp].[moe](A)[sp].[moe](C)[sp].[moe](A)[sp].[moe](G)}$$$$V2.0,17% and 22%,–
RNA1{[moe](A)[sp].[cEt](A)[sp].[cEt](A)[sp].d(T)[sp].d(G)[sp].d(G)[sp].d(C)[sp].d(A)[sp].d(C)[sp].d(T)[sp].d(A)[sp].d(G)[sp].d(T)[sp].[cEt](A)[sp].[cEt](A)[sp].[moe](A)}$$$$V2.0,51%,–
RNA1{[moe](T)[sp].[moe](G)[sp].[moe](C)[sp].[moe](A)[sp].[moe](G)[sp].d(A)[sp].d(G)[sp].d(G)[sp].d(T)[sp].d(G)[sp].d(A)[sp].d(A)[sp].d(G)[sp].d(C)[sp].[moe](G)[sp].[moe](A)}$$$$V2.0,61% and 52%,–
RNA1{[moe](T)[sp].[cEt](G)[sp].[cEt](G)[sp].d(A)[sp].d(G)[sp].d(C)[sp].d(C)[sp].d(A)[sp].d(C)[sp].d(C)[sp].d(A)[sp].d(G)[sp].d(C)[sp].[cEt](A)[sp].[cEt](G)[sp].[moe](G)}$$$$V2.0,57% and 53%,–
RNA1{[moe](C)[sp].[moe](A)[sp].d(G)[sp].d(A)[sp].d(G)[sp].d(G)[sp].d(T)[sp].d(G)[sp].d(A)[sp].d(A)[sp].d(G)[sp].[moe](C)[sp].[moe](G)[sp].[moe](A)[sp].[moe](A)[sp].[moe](G)[sp].[moe](T)}$$$$V2.0,61%,–
RNA1{[moe](A)[sp].[moe](T)[sp].[moe](T)[sp].d(T)[sp].d(A)[sp].d(T)[sp].d(G)[sp].d(C)[sp].d(C)[sp].d(T)[sp].d(A)[sp].d(C)[sp].d(A)[sp].[cEt](G)[sp].[cEt](C)[sp].[cEt](C)}$$$$V2.0,47% and 65%,–
RNA1{[moe](C)[sp].[moe](C)[sp].[moe](G)[sp].[moe](C)[sp].[moe](A)[sp].[moe](G)[sp].d(T)[sp].d(A)[sp].d(T)[sp].d(G)[sp].d(G)[sp].d(A)[sp].d(T)[sp].d(C)[sp].d(G)[sp].[moe](G)[sp].[moe](C)}$$$$V2.0,90% and 66%,–
